# Legend:
# MKN45 cells [1] = experiment: Inhibition of the growth of MKN45 cancer cells (MTS assay); type: cell-based
# Method: (§1) MKN45 cells were incubated in RPMI-1640 medium (Sigma-Aldrich) containing 5% FBS (Gibco®). 6×10^3 cells were added to each well of a 96-well plate. Each well contained 180 μL of the above medium. The plate was incubated at 37° C. for 4 hours, and then 20 μL of various concentrations of each of the raw extract, Cr-E03 and dLGG were added to each well of the plate. Each concentration was tested with 3 replicates. After further incubation at 37° C. for 48 hours, the medium in the wells was removed, and 180 μL of 5% FBS medium containing 3-(4,5-dimethylthiazol-2-yl)-5-(3-carboxymethoxyphenyl)-2-(4-sulfophenyl)-2H-tetrazolium (MTS) were added to the wells. After reaction at 37° C. for 1 hour, the absorption values at 490 nm of the wells were measured by ELISA Reader (Model 680 Microplate Reader, Bio-Rad). IC25, IC50 and IC75 values of the raw extract, Cr-E03 and dLGG, respectively, were obtained by calculation using GraphPad Prism 5 software (GraphPad Software, Inc). IC25, IC50 and IC75 values are defined as the concentrations of the test sample which achieve 25%, 50% and 75%, respectively, of the maximal inhibition of the growth of MKN45 cells.
# MKN45 cells [2] = experiment: Combination with 5-FU or epirubicin in the inhibition of the growth of MKN45 cancer cells (combination index); type: cell-based; conditions: CI<1 synergism, CI=1 addition, CI>1 antagonism
# Method: as §1
# Combinations of different concentrations of each of the raw extract, Cr-E03 and dLGG with different concentrations of each of 5-fluorouracil (5-FU) and epirubicin were prepared. […]
smiles,measurement,setting,value
"CC/C=C\C/C=C\C/C=C\CCCCCCCC(=O)OC[C@H](CO[C@@H]1O[C@H](CO)[C@H](O)[C@H](O)[C@H]1O)OC(=O)CCCCCCC/C=C\C/C=C\C/C=C\CC [dLGG, 1,2-di-O-α-linolenoyl-3-O-β-galactopyranosyl-sn-glycerol]",IC25,"MKN45 cells [1]; 48 hours, concentration achieving 25% of maximal growth inhibition",35.86 µg/mL
same,IC75,"MKN45 cells [1]; 48 hours, concentration achieving 75% of maximal growth inhibition",61.96 µg/mL
same,IC50,"MKN45 cells [1]; Homo sapiens, MKN-45, 48 hours, concentration achieving 50% of maximal growth inhibition",47.3 µg/mL
same,CI (combination index),MKN45 cells [2]; combination with 5FU,1.58
same,CI (combination index),MKN45 cells [2]; combination with Epi (epirubicin),1.58
